Measured values taken from ChEMBL document CHEMBL3137667, “[Drug-induced liver injury; fourteenth updated edition of the bibliographic database of liver injuries and related drugs]” (Gastroenterol Clin Biol, 2004).

Legend:
[1] = Highest frequency of moderate liver toxicity observed during clinical trials, expressed as a percentage. [column '% BIOL' in source]; settings: human
[2] = Highest frequency of acute liver toxicity observed during clinical trials, expressed as a percentage. [column '% AIGUE' in source]; settings: human
[3] = human, serum
[4] = human, serum; remark: listed apart in the source
[5] = human
[6] = human; remark: listed apart in the source
[7] = human; remark: listed apart in the source
[8] = human, serum, 4383 h
[9] = human; remark: listed apart in the source
[10] = human; remark: listed apart in the source
[11] = human; remark: listed apart in the source
[12] = human; remark: listed apart in the source
[13] = human; remark: listed apart in the source
[14] = human; remark: listed apart in the source
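Wherever Hepatotoxicity (association with vascular disease) is given: count of indexed literature references reporting vascular liver injury in humans, e.g. peliosis hepatitis, hepatic veno-occlusive disease or Budd-Chiari syndrome.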
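Wherever Hepatotoxicity (benign tumour) is given: value is a count of indexed literature references citing a benign tumour confirmed by histopathology.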
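Wherever Hepatotoxicity (choleostasis) is given: human cholestatic liver injury, shown by histopathology or by peak ALT or AST elevation over alkaline phosphatase ratio below 2, value counts indexed literature reports.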
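Wherever Hepatotoxicity (chronic liver disease) is given: chronic liver injury confirmed by histopathology or persistently raised serum aminotransferase activity beyond 6 months, value given as the count of indexed literature references.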
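Wherever Hepatotoxicity (cirrhosis) is given: value is a count of indexed literature references reporting cirrhosis confirmed by histopathology.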
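Wherever Hepatotoxicity (cytolytic) is given: human cytolytic liver injury, shown by histopathology or by a ratio above 5 of peak ALT or AST elevation to alkaline phosphatase elevation, value counts indexed references.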
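Wherever Hepatotoxicity (granulomatous hepatitis) is given: value is a count of indexed literature references reporting granulomatous liver disease confirmed by histopathology.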
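Wherever Hepatotoxicity (malignant tumour) is given: malignant tumour confirmed by histopathology, value gives the count of indexed literature references reporting it.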
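Wherever Hepatotoxicity (severe hepatitis) is given: human clinical data: severe hepatitis, meaning potentially life-threatening liver failure or clinically observed cases, the value counts how many indexed literature references report it.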
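Wherever Hepatotoxicity (steatosis) is given: steatosis confirmed by histopathology, value is the count of indexed references.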

Row | Structure (SMILES) | Hepatotoxicity (moderate) [1] | Hepatotoxicity (acute) [2] | Hepatotoxicity (moderate) [3] | Hepatotoxicity (acute) [4] | Hepatotoxicity (cytolytic) [5] | Hepatotoxicity (choleostasis) [6] | Hepatotoxicity (severe hepatitis) [7] | Hepatotoxicity (chronic liver disease) [8] | Hepatotoxicity (cirrhosis) [9] | Hepatotoxicity (granulomatous hepatitis) [10] | Hepatotoxicity (association with vascular disease) [11] | Hepatotoxicity (steatosis) [12] | Hepatotoxicity (malignant tumour) [13] | Hepatotoxicity (benign tumour) [14]
1 | O=C1NCCN1c1ncc([N+](=O)[O-])s1 [NIRIDAZOLE] | 0% | 0% | 2 | 0 | 0 | 0 | 0 | 0 | 0 | 0 | 0 | 0 | 0 | 0
2 | COC(=O)C1=C(C)NC(C)=C(C(=O)OCC(C)C)C1c1ccccc1[N+](=O)[O-] (centres undefined) [NISOLDIPINE] | 12.5% | 0% | 1 | 0 | 0 | 0 | 0 | 0 | 0 | 0 | 0 | 0 | 0 | 0
3 | C[C@]1(O)CC[C@H]2[C@@H]3CCC4=CC(=O)CC[C@@H]4[C@H]3CC[C@@]21C [NORMETHANDRONE] | 0% | 0% | 0 | 2 | 0 | 1 | 0 | 0 | 0 | 0 | 0 | 0 | 0 | 0
4 | COC(=O)C[C@](O)(CCCC(C)(C)O)C(=O)O[C@@H]1C(OC)=C[C@]23CCCN2CCc2cc4c(cc2[C@H]13)OCO4 [OMACETAXINE MEPESUCCINATE] | 15% | 0% | 3 | 0 | 0 | 0 | 0 | 0 | 0 | 0 | 0 | 0 | 0 | 0
5 | CCOC(=O)C1=C[C@@H](OC(CC)CC)[C@H](NC(C)=O)[C@@H](N)C1 [OSELTAMIVIR] | 0% | 0% | 0 | 1 | 0 | 0 | 0 | 0 | 0 | 0 | 0 | 0 | 0 | 0
6 | O=C(O)C(=O)O [OXALIC ACID] | 0% | 0% | 1 | 0 | 0 | 0 | 0 | 0 | 0 | 0 | 0 | 0 | 0 | 0
7 | CC(C)NCC1CCc2cc(CO)c([N+](=O)[O-])cc2N1 (centres undefined) [OXAMNIQUINE] | 0% | 0% | 3 | 0 | 0 | 0 | 0 | 0 | 0 | 0 | 0 | 0 | 0 | 0
8 | COc1cc2[nH]c(C)c(CCN3CCN(c4ccccc4)CC3)c2cc1OC [OXYPERTINE] | 0% | 0% | 1 | 0 | 0 | 0 | 0 | 0 | 0 | 0 | 0 | 0 | 0 | 0
9 | NCCC(O)(P(=O)(O)O)P(=O)(O)O [PAMIDRONIC ACID] | 2.7% | 0% | 3 | 0 | 0 | 0 | 0 | 0 | 0 | 0 | 0 | 0 | 0 | 0
10 | CCC(=O)NS(=O)(=O)c1ccc(-c2c(-c3ccccc3)noc2C)cc1 [PARECOXIB] | 6.5% | 0% | 1 | 0 | 0 | 0 | 0 | 0 | 0 | 0 | 0 | 0 | 0 | 0
11 | C[C@H]1COc2c(C3(N)CC3)c(F)cc3c(=O)c(C(=O)O)cn1c23 [PAZUFLOXACIN] | 11.1% | 0% | 31 | 0 | 0 | 0 | 0 | 0 | 0 | 0 | 0 | 0 | 0 | 0
12 | CNc1nc(N(C)C)nc(N(C)C)n1 [PENTAMETHYL MELAMINE] | 31% | 0% | 1 | 0 | 0 | 0 | 0 | 0 | 0 | 0 | 0 | 0 | 0 | 0
13 | CCCN1C[C@H](CSC)C[C@@H]2c3cccc4[nH]cc(c34)C[C@H]21 [PERGOLIDE] | 1.9% | 0% | 3 | 0 | 0 | 0 | 0 | 0 | 0 | 0 | 0 | 0 | 0 | 0
14 | CCC(C(=O)NC(N)=O)c1ccccc1 (centres undefined) [PHENETURIDE] | 0% | 0% | 1 | 0 | 0 | 0 | 0 | 0 | 0 | 0 | 0 | 0 | 0 | 0
15 | O=C(O)c1ccccc1C(=O)Nc1ccc(S(=O)(=O)Nc2nccs2)cc1 [PHTHALYLSULFATHIAZOLE] | 0% | 0% | 0 | 1 | 0 | 0 | 0 | 0 | 0 | 0 | 0 | 0 | 0 | 0
16 | CCn1cc(C(=O)O)c(=O)c2cnc(N3CCNCC3)nc21 [PIPEMIDIC ACID] | 0% | 0% | 1 | 0 | 0 | 0 | 0 | 0 | 0 | 0 | 0 | 0 | 0 | 0
